The text below walks through data of patent US11780893B2, “Kv1.3 blockers” (Zealand Pharma A/S, priority 2019, dated 2023).

Bridge positions count the residues as written; N and C are the ends. Square brackets hold non-standard residues; d marks the D form. Peptide text beside a SMILES is read from it. Nle = CCCC[C@H](N)C(=O)O

T1 sequence (P22001 whole entry): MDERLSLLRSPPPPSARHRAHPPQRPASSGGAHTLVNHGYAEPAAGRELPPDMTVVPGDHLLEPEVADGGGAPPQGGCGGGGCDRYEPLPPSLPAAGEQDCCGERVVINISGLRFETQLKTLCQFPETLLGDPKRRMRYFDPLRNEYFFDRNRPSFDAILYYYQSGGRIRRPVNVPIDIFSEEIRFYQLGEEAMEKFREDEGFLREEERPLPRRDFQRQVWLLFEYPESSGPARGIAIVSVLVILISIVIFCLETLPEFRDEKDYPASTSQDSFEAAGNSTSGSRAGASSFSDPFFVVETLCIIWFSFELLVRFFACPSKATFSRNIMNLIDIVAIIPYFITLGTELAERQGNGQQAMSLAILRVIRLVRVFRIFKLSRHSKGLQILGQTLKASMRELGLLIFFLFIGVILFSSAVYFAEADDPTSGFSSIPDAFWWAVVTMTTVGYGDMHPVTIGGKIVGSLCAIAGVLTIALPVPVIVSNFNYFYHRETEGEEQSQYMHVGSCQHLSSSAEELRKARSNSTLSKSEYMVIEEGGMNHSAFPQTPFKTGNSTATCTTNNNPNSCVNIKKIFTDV

This assay concerns the target T1, human Kv1.3 voltage-gated K+ channel (Homo sapiens, UniProt P22001).
T1 construct: host or cells: CHO-DUKX
The experiment in a line: cell-based. Particulars: inhibition of thallium flux, CHO-DUKX cells with human Kv1.3; read-out: IC50.
For the molecule `CCCC[C@H](NC(=O)[C@H](CC(=O)O)NC(=O)[C@H](CCCC)NC(=O)[C@@H](N)CO)C(=O)N[C@@H](CCCNC(=N)N)C(=O)N[C@H]1CSSC[C@@H]2NC(=O)[C@H](CCCCN)NC(=O)CNC(=O)[C@H](Cc3ccccc3)NC(=O)[C@H]([C@@H](C)CC)NC(=O)[C@H](CO)NC(=O)CNC(=O)[C@H]([C@@H](C)CC)NC(=O)[C@H](C)NC(=O)CNC(=O)[C@H](CC(C)C)NC(=O)[C@@H]3CSSC[C@@H](C(=O)N[C@@H](Cc4ccc(O)cc4)C(=O)N4CCC[C@H]4C(=O)N[C@@H](CCCNC(=N)N)C(N)=O)NC(=O)[C@H](CCCCN)NC(=O)[C@H](CSSC[C@H](NC(=O)[C@H](CCC(=O)O)NC(=O)[C@H](C(C)C)NC(=O)[C@H](CO)NC(=O)[C@H](C)NC(=O)[C@H](CO)NC1=O)C(=O)N[C@@H](CCCCN)C(=O)N[C@@H](CCC(N)=O)C(=O)N[C@@H](CCCCN)C(=O)N3)NC(=O)[C@H](CCCCN)NC(=O)[C@H](CCCCN)NC(=O)[C@H](CC(N)=O)NC(=O)[C@H](CCSC)NC2=O` [Compound 77] (H-S[Nle]D[Nle]RCSASVECKQKCLGAIGSIFGKCMNKKCKCYPR-NH2; disulfide 6-27, 12-32, 16-34), the IC50 amounted to 0.13 nM.

As for `CC[C@H](C)[C@@H]1NC(=O)[C@H](CO)NC(=O)CNC(=O)[C@H](CCC(=O)O)NC(=O)[C@H](C)NC(=O)[C@H](CCCCN)NC(=O)[C@H](CC(C)C)NC(=O)[C@@H]2CSSC[C@@H](C(=O)N[C@@H](Cc3ccc(O)cc3)C(=O)N3CCC[C@H]3C(=O)N[C@@H](CCCNC(=N)N)C(N)=O)NC(=O)[C@H](CCCCN)NC(=O)[C@@H]3CSSC[C@H](NC(=O)[C@H](CCC(=O)O)NC(=O)[C@H](C(C)C)NC(=O)[C@H](CO)NC(=O)[C@H](C)NC(=O)[C@H](CO)NC(=O)[C@@H](NC(=O)[C@H](CCCNC(=N)N)NC(=O)[C@H](CCSC)NC(=O)[C@H](CC(=O)O)NC(=O)[C@H](CCSC)NC(=O)[C@@H](N)CC(N)=O)CSSC[C@H](NC(=O)[C@H](CCCCN)NC(=O)CNC(=O)[C@H](Cc4ccccc4)NC1=O)C(=O)N[C@@H](CCSC)C(=O)N[C@@H](CC(N)=O)C(=O)N[C@@H](CCCCN)C(=O)N[C@@H](CCCCN)C(=O)N3)C(=O)N[C@@H](CCCCN)C(=O)N[C@@H](CCC(N)=O)C(=O)N[C@@H](CCCCN)C(=O)N2` [Compound 59] (H-NMDMRCSASVECKQKCLKAEGSIFGKCMNKKCKCYPR-NH2; disulfide 6-27, 12-32, 16-34), the IC50 worked out at 0.035 nM.

With `CCCC[C@H](NC(=O)[C@H](CC(=O)O)NC(=O)[C@H](CCSC)NC(=O)[C@@H](N)CC(N)=O)C(=O)N[C@@H](CCCNC(=N)N)C(=O)N[C@H]1CSSC[C@@H]2NC(=O)[C@H](CCCCN)NC(=O)CNC(=O)[C@H](Cc3ccccc3)NC(=O)[C@H]([C@@H](C)CC)NC(=O)[C@H](CO)NC(=O)CNC(=O)[C@H]([C@@H](C)CC)NC(=O)[C@H](C)NC(=O)[C@H](CCCCN)NC(=O)[C@H](CC(C)C)NC(=O)[C@@H]3CSSC[C@@H](C(=O)N[C@@H](Cc4ccc(O)cc4)C(=O)N4CCC[C@H]4C(=O)N[C@@H](CCCNC(=N)N)C(N)=O)NC(=O)[C@H](CCCCN)NC(=O)[C@H](CSSC[C@H](NC(=O)[C@H](CCC(=O)O)NC(=O)[C@H](C(C)C)NC(=O)[C@H](CO)NC(=O)[C@H](C)NC(=O)[C@H](CO)NC1=O)C(=O)N[C@@H](CCCCN)C(=O)N[C@@H](CCC(N)=O)C(=O)N[C@@H](CCCCN)C(=O)N3)NC(=O)[C@H](CCCCN)NC(=O)[C@H](CCCCN)NC(=O)[C@H](CC(N)=O)NC(=O)[C@H](CCSC)NC2=O` [Compound 15] (H-NMD[Nle]RCSASVECKQKCLKAIGSIFGKCMNKKCKCYPR-NH2; disulfide 6-27, 12-32, 16-34), the IC50 was 0.12 nM.

For the molecule `CCCC[C@@H]1NC(=O)[C@@H]2CSSC[C@H](NC(C)=O)C(=O)N[C@@H](CO)C(=O)N[C@@H](C)C(=O)N[C@@H](CO)C(=O)N[C@@H](C(C)C)C(=O)N[C@@H](CCC(=O)O)C(=O)N[C@H]3CSSC[C@H](NC(=O)[C@H](CCCCN)NC(=O)[C@H](CCCCN)NC(=O)[C@H](CC(N)=O)NC1=O)C(=O)N[C@@H](CCCCN)C(=O)N[C@H](C(=O)N[C@@H](Cc1ccc(O)cc1)C(=O)N1CCC[C@H]1C(=O)N[C@@H](CO)C(N)=O)CSSC[C@H](NC(=O)[C@H](CCCCN)NC(=O)[C@H](CCC(N)=O)NC(=O)[C@H](CCCCN)NC3=O)C(=O)N[C@@H](CC(C)C)C(=O)N[C@@H](CCCCN)C(=O)N[C@@H](C)C(=O)N[C@@H]([C@@H](C)CC)C(=O)NCC(=O)N[C@@H](CO)C(=O)N[C@@H]([C@@H](C)CC)C(=O)N[C@@H](Cc1ccccc1)C(=O)NCC(=O)N[C@@H](CCCCN)C(=O)N2` [Compound 109] (Ac-CSASVECKQKCLKAIGSIFGKC[Nle]NKKCKCYPS-NH2; disulfide 1-22, 7-27, 11-29), the IC50 is 0.96 nM.

Regarding `CCCC[C@H](NC(=O)[C@@H]1CCCN1)C(=O)N[C@@H](CCC(=O)O)C(=O)N[C@@H](CCCC)C(=O)N[C@@H](CCCNC(=N)N)C(=O)N[C@H]1CSSC[C@@H]2NC(=O)[C@H](CCCCN)NC(=O)CNC(=O)[C@H](Cc3ccccc3)NC(=O)[C@H]([C@@H](C)CC)NC(=O)[C@H](CO)NC(=O)CNC(=O)[C@H]([C@@H](C)CC)NC(=O)[C@H](C)NC(=O)[C@H](C)NC(=O)[C@H](CC(C)C)NC(=O)[C@@H]3CSSC[C@@H](C(=O)N[C@@H](Cc4ccc(O)cc4)C(=O)N[C@@H](CCCNC(=N)N)C(=O)O)NC(=O)[C@H](CCCCN)NC(=O)[C@H](CSSC[C@H](NC(=O)[C@H](CCC(=O)O)NC(=O)[C@H](C(C)C)NC(=O)[C@H](CO)NC(=O)[C@H](C)NC(=O)[C@H](CO)NC1=O)C(=O)N[C@@H](CCCCN)C(=O)N[C@@H](CCC(N)=O)C(=O)N[C@@H](CCCCN)C(=O)N3)NC(=O)[C@H](CCCCN)NC(=O)[C@H](CCCCN)NC(=O)[C@H](CC(N)=O)NC(=O)[C@H](CCCC)NC2=O` [Compound 120] (H-P[Nle]E[Nle]RCSASVECKQKCLAAIGSIFGKC[Nle]NKKCKCYR-OH; disulfide 6-27, 12-32, 16-34), the IC50 was 0.894 nM.

For the molecule `CCCC[C@@H]1NC(=O)[C@@H]2CSSC[C@H](NC(=O)[C@H](CCCNC(=N)N)NC(=O)[C@H](CCCC)NC(=O)[C@H](CCC(=O)O)NC(=O)[C@H](CCCC)NC(=O)[C@H]3CCCN3)C(=O)N[C@@H](CO)C(=O)N[C@@H](C)C(=O)N[C@@H](CO)C(=O)N[C@@H](C(C)C)C(=O)N[C@@H](CCC(=O)O)C(=O)N[C@H]3CSSC[C@H](NC(=O)[C@H](CCCCN)NC(=O)[C@H](CCCCN)NC(=O)[C@H](CC(N)=O)NC1=O)C(=O)N[C@@H](CCCCN)C(=O)N[C@H](C(=O)N[C@@H](Cc1ccc(O)cc1)C(=O)N1CCC[C@H]1C(=O)N[C@@H](CCCNC(=N)N)C(=O)O)CSSC[C@H](NC(=O)[C@H](CCCCN)NC(=O)[C@H](CCC(N)=O)NC(=O)[C@H](CCCCN)NC3=O)C(=O)N[C@@H](CC(C)C)C(=O)N[C@@H](C)C(=O)N[C@@H](C)C(=O)N[C@@H]([C@@H](C)CC)C(=O)NCC(=O)N[C@@H](CO)C(=O)N[C@@H]([C@@H](C)CC)C(=O)N[C@@H](Cc1ccccc1)C(=O)NCC(=O)N[C@@H](CCCCN)C(=O)N2` [Compound 119] (H-[dP][Nle]E[Nle]RCSASVECKQKCLAAIGSIFGKC[Nle]NKKCKCYPR-OH; disulfide 6-27, 12-32, 16-34), the IC50 is 0.63 nM.

What is called IC50 is the concentration that gives 50% inhibition.
